Like-named read-outs stand apart in the source and are kept apart here. Some results are limits rather than exact numbers.

The nature of data set [1]: Body weight during therapeutic study (Alzet minipumps). It is filed as in vivo, mice. Particulars: 1 mg/kg subcutaneous minipump, 7 weeks after pump implantation. The method, then:
(§1) Alzet pumps model 1004 (Alzet, USA), with a rate of 0.11 µl/hour and 28 days effective compound delivery was used. MK-28 compound was dissolved in 1:1 DMSO/PEG400 and prepared to delivery subcutaneously 6 mg/kg MK-28 for toxicity studies (n = 8) or 1 mg/kg for therapeutic evaluation in R6/2 mice (n = 72). For toxicity studies mice receiving six times the therapeutic dose of MK-28 or vehicle were weighed every two days for two consecutive weeks. […]. Alzet pumps were implanted in 4 weeks old mice and MK-28 was administered at 1 mg/kg with continuous dosing for 28 days. […]

The target in a further data set is EIF2AK4 (GCN2) (Homo sapiens, UniProt Q9P2K8). The data set is described as follows: In vitro HotSpot kinase assay on GCN2. It is filed as biochemical. Particulars: plateau considered reached at 10 µM; read-out: EC50 of GCN2 activation. As to the method: In vitro kinase assays with purified components and full kinase panel analysis was done at Reaction Biology Corp. (Malvern, PA, USA) using the HotSpot Kinase Assay. Reactions were performed for 20 min at room temp. using ^33P-ATP (Specific activity 10 μCi/μl) with 1 μM total ATP, 20 μM substrate and kinases in the nanomolar range in 20 mM Hepes (pH 7.5), 10 mM MgCl2, 1 mM EGTA, 0.02% Brij35, 0.02 mg/ml BSA, 0.1 mM Na3VO4, 2 mM DTT, 1% DMSO and other required factors depending on the assayed kinase. […]
was calculated from the data in Fig. 3. Note that for the calculation for GCN2, we considered […]
Suppl. Fig. S3. Modulation of PERK by A4. A4 was tested for its effect on isolated PERK in vitro, showing a weak activating effect in the nanomolar range. (performed at Reaction Biology Corp. using the HotSpot Kinase Assay).
(1 picture or pasted object on this page, not shown here)

Another data set deals with EIF2AK1 (HRI) (Homo sapiens, UniProt Q9BQI3). Nature of the data set: In vitro HotSpot kinase assay on HRI. It is filed as biochemical. As to the method:
In vitro kinase assays with purified components and full kinase panel analysis was done at Reaction Biology Corp. (Malvern, PA, USA) using the HotSpot Kinase Assay. Reactions were performed for 20 min at room temp. using ^33P-ATP (Specific activity 10 μCi/μl) with 1 μM total ATP, 20 μM substrate and kinases in the nanomolar range in 20 mM Hepes (pH 7.5), 10 mM MgCl2, 1 mM EGTA, 0.02% Brij35, 0.02 mg/ml BSA, 0.1 mM Na3VO4, 2 mM DTT, 1% DMSO and other required factors depending on the assayed kinase.

The subject of a further data set is GADD34 mRNA. Nature of the data set: GADD34 mRNA by qPCR in STHdh^Q7/7 and STHdh^Q111/111 cells. Particulars: both cell types, qPCR vs GAPDH. It counts as cell-based, murine. As to the method:
Total cell RNA was extracted with TRIzol reagent (Invitrogen) according to the manufacturer's instructions. Reverse transcription (RT) was performed with QuantaBio qScript cDNA synthesis kit. Real-time qPCR was carried out using a CFX Connect Real-Time PCR Detection System (BioRad) and the amplifications were done using the SYBR Green PCR Master Mix (pcrbio). Reactions were run in triplicates in three independent experiments. Housekeeping gene GAPDH was used as an internal control to normalize the variability of expression levels.
On the technique in general: Real-time PCR tracks product formation cycle by cycle.

The subject of a further data set is B6 wild type mice. Nature of the data set: Toxicity study, 2 weeks continuous subcutaneous Alzet pump delivery. It counts as in vivo. The conditions noted are these: 6 mg/kg, 2 weeks continuous subcutaneous delivery. The method, then:
as §1

Data set [2] in a line: Pharmacokinetics and BBB penetration after single IP injection. It counts as in vivo. Particulars: mice, single IP 10 mg/kg.
The next data set relates to eIF2α-P. The data set is described as follows: Brain striatum immunofluorescence of eIF2α-P / total eIF2α. It counts as in vivo, mice. The conditions noted are these: week 4 after pump implantation. As to the method:
Under anesthesia, animals were perfused with 4% PFA (formaldehyde in phosphate-buffered saline (PBS)) and the brains were removed and soaked in 4% PFA overnight. Then, brains were incubated overnight in 30% sucrose solution and frozen in OCT compound Tissue-Tek by using dry ice. Sections (10 µm) of the striatum were obtained by cryostat. Brain sections were processed for immunochemistry with the kind help of Daniel Frenkel. They were washed with PBS for 10 minutes, incubated in 0.5% triton-X-100 for 10 minutes and then in blocking solution containing 1% bovine serum albumin (BSA), 10% normal goat serum and 0.25% triton for one hour at room temperature. The samples were rinsed with PBS and incubated overnight at 4 °C with the selected primary antibody diluted in blocking solution (eIF2α-mouse [1:400] and phosphorylated eIF2α-rabbit [1:400]). […] After washing with PBS, samples were placed in DAPI (4′,6-diamidino-2-phenylindole) diluted in PBS for 10 minutes, mounted and examined by confocal microscope Zeiss LSM-510, 3 slides were analysed from each subject.
Signal quantification and cell counting were done using the ImageJ program. The value obtained for the phosphorylated eIF2α signal was divided by the total eIF2α signal in the same image. […] Statistical significance was determined at P < 0.05.

The test system of the next data set is WT MEF cells. Nature of the data set: Rescue from tunicamycin-induced apoptosis in WT MEFs. It counts as cell-based. Particulars: Mus musculus, MEF; WT MEFs treated with Tun; read-out: IC50 for inhibition of apoptosis. As to the method:
(§2) STHdh^Q111/111 cells (used before[13]) or PERK+/+ or PERK−/− MEFs (kindly provided by David Ron, Univ. Cambridge) were incubated with Tun (10 μg/ml) for 48 h, which results in ER stress-induced cell death. Cells under the same conditions were incubated for the same times, together with Tun, with increasing concentrations of the different PERK modulators (0–120 μM) and the percent of apoptotic cells was measured by FACS cell cycle progression using propidium iodide (PI), considering the fraction beneath G0/G1. The relative apoptosis rate was calculated to be able to compare between compounds and experiments, where for each concentration curve the percent of apoptotic cells was considered 100 at concentration 0 of the PERK modulator, with only Tun. The graphs show the average relative apoptosis rate of at least 3 independent experiments for each compound.
(§3) Cells were washed with PBS and fixed with cold methanol. Before FACS analysis cells were washed with PBS, followed by addition of propidium iodide (PI) solution (10 μg/ml) and analysis by flow cytometry. Cells in sub-G0/G1 were counted as apoptotic/ dead.

The next data set has as its system STHdh^Q111/111 cells. Nature of the data set: Toxicity assay: rescue from tunicamycin (ER stress)-induced apoptosis, FACS with propidium iodide (sub-G0/G1). It is filed as cell-based, murine. The method, then: as §2, §3

Sequence of EIF2AK4 (GCN2) (Q9P2K8 whole entry): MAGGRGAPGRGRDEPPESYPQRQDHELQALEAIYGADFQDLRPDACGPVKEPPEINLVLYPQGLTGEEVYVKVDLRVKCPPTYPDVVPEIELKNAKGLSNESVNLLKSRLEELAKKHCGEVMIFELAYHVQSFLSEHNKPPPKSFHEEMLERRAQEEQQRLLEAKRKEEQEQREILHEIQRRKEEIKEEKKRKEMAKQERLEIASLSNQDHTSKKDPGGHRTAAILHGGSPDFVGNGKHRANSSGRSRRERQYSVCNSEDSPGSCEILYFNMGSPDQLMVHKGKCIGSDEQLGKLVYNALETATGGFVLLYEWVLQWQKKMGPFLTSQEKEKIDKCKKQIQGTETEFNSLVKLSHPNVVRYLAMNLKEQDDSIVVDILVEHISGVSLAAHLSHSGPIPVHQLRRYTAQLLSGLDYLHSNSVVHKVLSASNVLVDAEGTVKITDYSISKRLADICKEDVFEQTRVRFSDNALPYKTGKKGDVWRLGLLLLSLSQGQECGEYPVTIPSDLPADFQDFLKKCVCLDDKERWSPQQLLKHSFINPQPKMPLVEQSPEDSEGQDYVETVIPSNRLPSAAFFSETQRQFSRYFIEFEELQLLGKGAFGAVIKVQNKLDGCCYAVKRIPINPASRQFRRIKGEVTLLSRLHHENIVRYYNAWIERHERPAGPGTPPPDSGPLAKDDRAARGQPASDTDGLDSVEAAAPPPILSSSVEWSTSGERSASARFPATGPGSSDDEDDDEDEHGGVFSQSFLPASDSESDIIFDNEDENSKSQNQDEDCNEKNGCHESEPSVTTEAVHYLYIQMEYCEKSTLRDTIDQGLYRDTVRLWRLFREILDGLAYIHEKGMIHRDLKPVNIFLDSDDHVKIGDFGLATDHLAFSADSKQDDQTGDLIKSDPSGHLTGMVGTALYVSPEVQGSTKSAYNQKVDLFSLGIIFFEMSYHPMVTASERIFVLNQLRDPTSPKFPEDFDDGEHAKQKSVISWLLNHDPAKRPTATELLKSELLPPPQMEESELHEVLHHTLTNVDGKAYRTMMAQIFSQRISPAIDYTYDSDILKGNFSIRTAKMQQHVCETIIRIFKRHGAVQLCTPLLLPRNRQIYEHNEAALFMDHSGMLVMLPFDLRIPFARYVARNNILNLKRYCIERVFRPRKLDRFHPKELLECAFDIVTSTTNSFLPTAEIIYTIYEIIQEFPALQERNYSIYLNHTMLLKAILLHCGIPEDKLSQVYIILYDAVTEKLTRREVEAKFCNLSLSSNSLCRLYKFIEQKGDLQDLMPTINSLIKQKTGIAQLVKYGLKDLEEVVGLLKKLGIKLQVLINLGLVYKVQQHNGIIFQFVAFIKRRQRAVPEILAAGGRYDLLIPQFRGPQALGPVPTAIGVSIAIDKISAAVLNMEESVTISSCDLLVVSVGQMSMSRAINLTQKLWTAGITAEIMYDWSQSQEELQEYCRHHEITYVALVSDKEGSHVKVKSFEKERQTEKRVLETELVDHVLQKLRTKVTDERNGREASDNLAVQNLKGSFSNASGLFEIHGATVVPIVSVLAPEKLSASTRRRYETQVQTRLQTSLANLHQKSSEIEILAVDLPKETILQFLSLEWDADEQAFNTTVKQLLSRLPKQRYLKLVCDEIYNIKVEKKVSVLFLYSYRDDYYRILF
Sequence of EIF2AK1 (HRI) (Q9BQI3 whole entry): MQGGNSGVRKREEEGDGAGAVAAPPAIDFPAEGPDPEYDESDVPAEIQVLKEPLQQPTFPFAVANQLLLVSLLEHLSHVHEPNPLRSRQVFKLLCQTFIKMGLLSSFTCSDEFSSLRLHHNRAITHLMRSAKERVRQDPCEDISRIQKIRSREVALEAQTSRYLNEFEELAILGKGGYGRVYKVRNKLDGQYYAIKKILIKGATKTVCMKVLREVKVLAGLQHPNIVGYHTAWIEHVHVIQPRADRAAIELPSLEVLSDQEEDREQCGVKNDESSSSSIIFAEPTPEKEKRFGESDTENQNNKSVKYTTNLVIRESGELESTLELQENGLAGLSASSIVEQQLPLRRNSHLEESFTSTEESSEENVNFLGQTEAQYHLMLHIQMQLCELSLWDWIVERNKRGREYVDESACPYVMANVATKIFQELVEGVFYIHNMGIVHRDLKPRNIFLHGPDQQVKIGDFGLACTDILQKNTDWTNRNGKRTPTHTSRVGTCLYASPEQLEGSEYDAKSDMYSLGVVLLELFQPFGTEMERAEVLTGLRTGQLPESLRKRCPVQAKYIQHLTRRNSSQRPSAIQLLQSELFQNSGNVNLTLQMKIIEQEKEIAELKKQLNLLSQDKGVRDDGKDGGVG

For `CN(/N=C\c1ccc(O)c(O)c1)c1nc(-c2ccccc2)cc(-c2ccccc2)n1` [MK-28], the “weight, MK-28 vs vehicle” value in [1] was “no significant differences”. On EIF2AK4 (GCN2), the EC50 was found to be 3.5 µM. Besides, the “effect on EIF2AK1 (HRI) activity” value at EIF2AK1 (HRI) is “little or no effect”. For the same compound, the “increase of GADD34 mRNA levels” value in the data set on GADD34 mRNA is on record as at most 5 fold. The toxic effects result with B6 wild type mice is listed as “No toxic effects”. Further, in data set [2], the “time of Cmax in plasma after injection” value is given as 40 min. Further, in [2], the “time of Cmax in the brain after injection” value worked out at 40 min. Moreover, the Kp in data set [2] (mouse, brain, read-out: AUC in the brain as % of that in the plasma) worked out at 0.22. Further, the Cmax is 57 ng/g in [2] (mouse, brain, read-out: Cmax in the brain) and 105 ng/mL in [2] (mouse, plasma, read-out: Cmax in plasma). Moreover, the half-life in data set [2] (mouse, brain, read-out: half-life in the brain) amounted to 80 min; in data set [2] (mouse, plasma, read-out: half-life in plasma) it was 30 min. Moreover, the figures for the “increase of eIF2α-P levels in striatum” value in the data set on eIF2α-P (TG mice) and with eIF2α-P (WT mice) were ~ 6 fold and ~ 7 fold, respectively. The IC50 was 1.7 µM in the data set on WT MEF cells and 6.8 µM in the data set on STHdh^Q111/111 cells (Mus musculus, STHdhQ111, STHdh^Q111/111 cells treated with Tun, read-out: IC50 for inhibition of apoptosis). Also, the “rescue from ER stress-induced apoptosis” value in the data set on STHdh^Q111/111 cells (0–100 μM, 48 h Tun exposure (Fig. 1C)) is listed as “able to rescue the cells from apoptosis”. In addition, the reduction of apoptosis in the data set on STHdh^Q111/111 cells (5 μM, 48 h Tun exposure) is reported as 20%; in the data set on STHdh^Q111/111 cells (10 μM, Tun (Fig. 4C)), 40%; in the data set with STHdh^Q111/111 cells (100 μM, 48 h Tun exposure) it was 5 fold. Also, in the data set on STHdh^Q111/111 cells (Fig. 4C), the “IC50 ratio MK-28 vs CCT020312 in rescuing mHtt-expressing striatal neurons from apoptosis” value is ~ 3 fold. Also, the “concentration that showed identical levels of apoptosis in STHdh^Q111/111 and STHdh^Q7/7 cells” value in the data set on STHdh^Q111/111 cells (Tun (Fig. 1D)) amounted to 50 µM.

As usually defined, the EC50 is the concentration that produces a half-maximal response. A word on the Cmax: it is the highest concentration seen after dosing. As a reminder, the half-life is the time in which the quantity being followed falls by half. One may read the IC50 as the concentration that gives 50% inhibition.

These data come from publication PMC7181660, “A novel specific PERK activator reduces toxicity and extends survival in Huntington's disease models” (Scientific Reports, 2020).
